According to patent US8501957B2, “Benzimidazole compounds and their use as anticancer agents” (China Medical University, priority 2008, dated 2013):
One block for each compound: values may come before it.

Tests used:
PC-3 cells [1] = assay: In situ tubulin assay (immunofluorescence microscopy); format: cell-based, human; details: 18 to 24 h
Description: The organization and formation of microtubule were detected by immunofluorescence microscopic examination in PC-3 cells.
PC-3 cells were seeded in 8-well chamber slides and incubated with a vehicle (0.1% DMSO, control), Compound 55 (10 μM), taxol (0.1 μM), or vincristine (0.1 μM) for 18 to 24 h. Then, the cells were fixed with 100% methanol at −20° C. for 5 min and incubated in 1% bovine serum albumin (BSA) containing 0.1% Triton X-100 at 37° C. for 30 min. Cells were then washed twice with PBS for 5 min and stained with primary antibody specific to β-tubulin at 37° C. for 1 h. Afterwards, FITC-labeled secondary antibodies were used (staining performed at 37° C. for 40 min, green fluorescence) and the protein was detected using a confocal laser microscopic system (Leica TCS SP2). The nuclei were visible by DAPI staining (1 mg/mL DAPI, blue fluorescence).

[2] = system: prostate cancer PC-3 cells; assay: SRB assay, PC-3 cells; format: cell-based; details: Homo sapiens, SRB growth inhibition, 48 hrs or 72 hrs
Description: (§1) NCI/ADR-RES cell line was obtained from DTP Human Tumor Cell Line Screen (Developmental Therapeutics Program, NCI). Other cancer cell lines (A549, Hep G2, Hep 3B, DU-145, LNCaP, and PC-3) were obtained from American Type Culture Collection (Rockville, Md.). These cancer cells were cultured in RPMI1640 medium with 10% (v/v) fetal bovine serum (FBS) and penicillin (100 units/mL)/streptomycin (100 μg/mL). Cultures were maintained in a humidified incubator at 37° C. in 5% CO2/95% air.
(§2) Cells were seeded in 96-well plates in medium with 5% FBS for 24 hrs. They were then further incubated with a vehicle (0.1% DMSO) as control or a test compound for 48 hrs or 72 hrs. The control- or compound-treated cells were fixed with 10% TCA and stained with SRB at 0.4% (w/v) in 1% acetic acid. Unbound SRB was washed off by 1% acetic acid and SRB-bound cells were solubilized with 10 mM Trizma base.
(§3) Using an absorbance (515 nm) measurement, the amounts of cellular proteins indicating cell numbers at time zero (T0), in control (C), and in the presence of the test compound (Tx) were obtained. The percentage growth was calculated at each of the compound concentration levels. Percentage growth inhibition was calculated as: 100−[(Tx−T0)/(C−T0)]×100. […]

PC-3 cells [3] = assay: FACScan flow cytometric analysis of cell cycle; format: cell-based, human; details: 1 μM, 3 μM, and 10 μM, 0 hr to 48 hrs
Description: PC-3 cells were treated with Compound 55 (at different concentrations: 1 μM, 3 μM, and 10 μM) for 0 hr, 6 hrs, 12 hrs, 18 hrs, 24 hrs, 36 hrs, and 48 hrs. After treatment, cells were washed twice with ice-cold PBS, collected by centrifugation and fixed in 70% (v/v) ethanol at 4° C. for 30 min. Then, cells were treated with 0.2 ml of a buffer (containing 0.2 M Na2HPO4 and 0.1 M citric acid buffer, pH 7.8) for 30 min, centrifuged, and then incubated in 1 mL propidium iodide (PI) staining buffer (0.1% Triton X-100, 100 μg/mL RNase A, 80 μg/mL propidium iodide in PBS) at 37° C. for 30 min. Cells were detected using a cytofluorometer, and analyzed by FACScan and CellQuest program (Becton Dickinson).

PC-3 cells [4] = assay: Western blot of Bcl-2 family proteins, caspases and PARP; format: cell-based, human; details: 10 μM, 0 hr to 36 hrs
Description: Effect of benzimidazole compounds on inducing apoptosis was evaluated by testing their effect on the expression/activation of Bcl-2 family member proteins, caspases, and c-Jun N-terminal kinase (JNK). Bcl-2 family of proteins is the most important regulators of mitochondria-involved apoptotic cell death. The pro-apoptotic members, Bax, Bak and Bad, are required for the disruption of mitochondria; whereas the anti-apoptotic Bcl-2, Bcl-xL and Mcl-1 can prevent apoptosis by antagonizing the pro-apoptotic members.
PC-3 cells were incubated with a vehicle (0.1% DMSO) or Compound 55 (10 μM) for 0 hr, 6 hrs, 12 hrs, 18 hrs, 24 hrs, and 36 hrs. Then, the cells were harvested and lysed for the detection of protein expression with specific antibodies by western blot analysis. For Western blotting, the proteins (40 μg) in the lysis (including Phospho-Bcl-2, Bcl-2, Phospho-Bcl-xL, Bcl-xL, Mcl-1, Bax, Bak, Bad, GAPDH, cleaved Bad, Caspase-9, cleaved Caspase-9, Caspase-3, cleaved Caspase-3, poly-(ADP-ribose) polymerase (PARP), cleaved PARP, and GAPDH) were separated by electrophoresis in a 10 to 15% polyacrylamide gel, transferred to a nitrocellulose membrane and immuno-reacted with specific antibodies.

[5] = system: hepatocellular carcinoma Hep3B cells; assay: SRB assay, Hep3B cells; format: cell-based; details: Homo sapiens, SRB growth inhibition, 48 hrs or 72 hrs
Description: as §1, §2, §3

LNCaP cells = assay: SRB assay, LNCaP cells; format: cell-based; details: Homo sapiens, SRB growth inhibition, 48 hrs or 72 hrs
Description: as §1, §2, §3

[6] = system: human non-small cell lung cancer A549 cells; assay: SRB assay, A549 cells; format: cell-based; details: SRB growth inhibition, 48 hrs or 72 hrs
Description: as §1, §2, §3

DU-145 cells = assay: SRB assay, DU-145 cells; format: cell-based; details: Homo sapiens, SRB growth inhibition, 48 hrs or 72 hrs
Description: as §1, §2, §3

Tubulin proteins = assay: In vitro tubulin turbidity assay; format: biochemical; details: 37° C., 60 min
Description: Effects of the benzimidazole compounds on tubulin polymerization were detected using CytoDYNAMIX Screen 03 kit (Cytoskeleton, Inc., Denver, Colo.).
Tubulin proteins (>99% purity) were suspended in G-PEM buffer containing 80 mM PIPES, 2 mM MgCl2, 0.5 mM EDTA, and 1.0 mM GTP (pH 6.9) and 5% glycerol with or without a test compound. Then, the mixture was transferred to a 96-well plate and the absorbance was measured at 340 nm (37° C.) for 60 min (SpectraMAX Plus, Molecular Devices Inc., Sunnyvale, Calif.).
Level of tubulin polymerization was determined by examining turbidity of the tubulin suspension. Absorbance of the suspension at 340 nm was plotted as a function of time. Accordingly, the velocity and magnitude of tubulin polymerization were determined.

PC-3 cells [7] = assay: Western blotting of Ras, Raf-1, MEK; format: cell-based, human; details: 10 μM
Description: (§4) PC-3 cells were incubated with a vehicle (0.1% DMSO) as control or Coumpound 55 (10 μM) for 30 min, 45 min, 60 min, and 120 min for testing Ras; or for 6 hrs, 12 hrs, 18 hrs, and 24 hrs for testing Raf-1, Phospho-MEK, MEK, and GAPDH. After the treatment, cells were washed twice with ice-cold PBS and then lysed with 100 μL lysis buffer (20 mM Tris, pH 7.5, 1 mM MgCl2, 125 mM NaCl, 1% Triton X-100, 1 mM phenylmethylsulphonylfluoride, 10 μg/mL leupeptin, 10 μg/mL aprotinin, 25 mM β-glycerophosphate, 50 mM NaF, and 100 μM sodium orthovanadate). Then, the expressions of the above proteins were detected by Western blotting.

[8] = system: hepatocellular carcinoma HepG2 cells; assay: SRB assay, HepG2 cells; format: cell-based; details: Homo sapiens, SRB growth inhibition, 48 hrs or 72 hrs
Description: as §1, §2, §3

[9] = system: P-glycoprotein (P-gp)-rich breast cancer NCI/ADR-RES cells; assay: SRB assay, NCI/ADR-RES cells; format: cell-based; details: Homo sapiens, SRB growth inhibition, 48 hrs or 72 hrs
Description: as §1, §2, §3

PC-3 cells [10] = assay: Western blot analysis of cell-cycle regulators; format: cell-based, human; details: 10 μM
Description: as §4
The cell-cycle regulators were also examined by Western blot analysis. Proteins in the lysis (40 μg) were separated by electrophoresis in a 10 or 15% polyacrylamide gel, transferred to a nitrocellulose membrane and immuno-reacted with respective antibodies against Cyclin E, Cyclin A, Cyclin B1, Cdk1, Cdk2, p27, MPM2, and GAPDH.

SMILES: CC(=O)O[C@H]1C(=O)[C@@]2(C)[C@H]([C@H](OC(=O)c3ccccc3)[C@]3(O)C[C@H](OC(=O)[C@H](O)[C@@H](NC(=O)c4ccccc4)c4ccccc4)C(C)=C1C3(C)C)[C@]1(OC(C)=O)CO[C@@H]1C[C@@H]2O [taxol]
spindle and nuclei morphology (in situ labeling of tubulin and chromosomes) (PC-3 cells [1]; 0.1 μM): multi-polar spindles and multiple nuclei were formed

SMILES: CC[C@]1(O)C[C@H]2CN(CCc3c([nH]c4ccccc34)[C@@](C(=O)OC)(c3cc4c(cc3OC)N(C=O)[C@H]3[C@@](O)(C(=O)OC)[C@H](OC(C)=O)[C@]5(CC)C=CCN6CC[C@]43[C@@H]65)C2)C1 [vincristine]
spindle and nuclei morphology (in situ labeling of tubulin and chromosomes) (PC-3 cells [1]; 0.1 μM): multi-polar spindles and chromosome condensation were observed

IC50 [2]: 2300 nM
IC50 [5]: 2400 nM
IC50 (LNCaP cells): 1700 nM
IC50 [6]: 2400 nM
IC50 (DU-145 cells): 2300 nM
IC50 [8]: 3300 nM
IC50 [9]: 3700 nM
SMILES: COc1cc(Cn2c(-c3ccccc3)nc3cc(N4CCCC4)ccc32)cc(OC)c1OC [Compound 55, 2-phenyl-5-(pyrrolidin-1-yl)-1-(3,4,5-trimethoxybenzyl)-1H-benzo[d]imidazole]
cell population at G2/M phase (PC-3 cells [3]): induced an increase
hypodiploid (sub-G1, apoptosis) population of the cell cycle (PC-3 cells [3]): subsequent increase
spindle and nuclei morphology (in situ labeling of tubulin and chromosomes) (PC-3 cells [1]; 10 μM): mono-polar
Bcl-2 phosphorylation and degradation (PC-3 cells [4]): induced the phosphorylation and degradation
Bcl-xL phosphorylation and degradation (PC-3 cells [4]): induced the phosphorylation and degradation
Mcl-1 expression (PC-3 cells [4]): decrease
PARP cleavage (PC-3 cells [4]): cleaved to produce catalytically active fragments
caspase-3 cleavage (PC-3 cells [4]): cleaved to produce catalytically active fragments
caspase-9 cleavage (PC-3 cells [4]): cleaved to produce catalytically active fragments
cleavage of pro-apoptotic Bad (PC-3 cells [4]): cleavage of pro-apoptotic Bad into 15-kDa fragments was unexpectedly induced
tubulin polymerization (turbidity, absorbance at 340 nm) (Tubulin proteins): inhibited tubulin polymerization in a dose-dependent manner
Ras expression (PC-3 cells [7]; 30 min to 120 min): upregulated
MEK expression (PC-3 cells [7]; 6 hrs to 24 hrs): upregulated
Raf-1 expression (PC-3 cells [7]; 6 hrs to 24 hrs): upregulated
cyclin A expression (PC-3 cells [10]): downregulated
cyclin B1 expression (PC-3 cells [10]): upregulated
cyclin E expression (PC-3 cells [10]): downregulated
expression of p27 (a Cdk inhibitor) (PC-3 cells [10]): decreased
